{"source": "patent US20160089343A1", "about": "(LSU Health Sciences Center Shreveport, priority 2014, published 2016)", "key": {"HNSCC cell lines": {"system": "HNSCC cell lines", "assay": "HNSCC cell lines screened for sensitivity to curcumin (cell proliferation)", "type": "cell-based", "conditions": "for sensitivity of a variety of cell lines: spread of sensitivity across cell lines"}, "tumor formation": {"system": "tumor formation", "assay": "Model of minimal residual disease", "type": "in vivo"}, "mTOR pathway markers": {"system": "mTOR pathway markers", "assay": "Phase 2 biomarker exploratory trial in HNSCC patients", "type": "in vivo, human", "text": "Criteria #1) Biomarker expression in normal tissue should be different from that in high risk tissue. In FIG. 2 we present an analysis of cancer (lanes 5, 6, 11, and 12) and non-cancer (patients with sleep apnea) (lanes 1-4 and 7-10) patient samples. The cancer samples include tumors (T) and histologically tumor-free margins (M). […] Criteria #2) Biomarkers can be detected in small tissue specimens. In our studies we have successfully detected by western blots and even by IHC the various Akt/mTOR markers on samples often as small as 5 mm. Criteria #3) Biomarkers can be expressed in a quantity or pattern that can be correlated with the stage of carcinogenesis."}, "[1]": {"system": "normal fibroblast cell line CCL110", "assay": "Cell proliferation in the normal fibroblast cell line", "type": "cell-based", "conditions": "CCL110, in vitro"}, "[2]": {"system": "NFκB and Akt/mTOR pathways in PCI15a cells", "assay": "Modulation of NFκB and Akt/mTOR pathways, PCI15a cells", "type": "cell-based", "conditions": "10 μM curcumin"}, "[3]": {"system": "NFκB and Akt/mTOR pathways in SCC40 cells", "assay": "Modulation of NFκB and Akt/mTOR pathways, SCC40 cells", "type": "cell-based", "conditions": "SCC40, 10 μM curcumin"}, "[4]": {"system": "Akt/mTOR pathway in SCC066 cells", "assay": "Modulation of NFκB and Akt/mTOR pathways, SCC066 cells", "type": "cell-based", "conditions": "SCC066, 10 μM curcumin, 24 and 48 hours"}, "[5]": {"system": "pNFκB or Akt/mTOR in CCL110 cells", "assay": "Modulation of NFκB and Akt/mTOR pathways, CCL110 normal fibroblasts", "type": "cell-based", "conditions": "CCL110, 10 μM curcumin, 24 and 48 hours"}, "[6]": {"system": "pAkt and pS6 in SCC40 xenografts", "assay": "pAkt and pS6 in SCC40 xenografts of curcumin-treated mice", "type": "in vivo", "conditions": "mice with SCC40 xenografts treated with curcumin"}, "tumor cells": {"system": "tumor cells", "assay": "Chemoprevention model: pre-treatment before injecting tumor cells, tumor volume", "type": "in vivo, Balb/c nu/nu mice", "conditions": "from 4 days before tumor cells, about three weeks", "method": "Balb/c nu/nu mice were randomized into treatment groups. […] Tumors were measured over approximately three weeks. […] ANOVA analysis. […] This also points to its role as a chemopreventive agent rather than a therapeutic agent."}, "[7]": {"system": "AKT/mTOR pathway, FGF-2 and MMP-9 in HNSCC cell lines", "assay": "Biomarkers in HNSCC cell lines (earlier work)", "type": "cell-based", "text": "Also, identifying a consistent biomarker that can be validated in chemoprevention trials is critical, as the occurrence of cancer as an end point could take years. […] Acquiring the angiogenic phenotype by premalignant cells is the a critical step in carcinogenesis and FGF-2 is one of the most important angiogenic markers. Oral dysplasias are characterized by deregulations (DNA amplification and homozygous deletion) of multiple components of the FGF signaling network. […] GM-CSF promotes proliferation of endothelial progenitor cells, induces endothelial capillary formation via stimulation of MMP expression and activates JAK2/STAT-3 pathway. IL-17, besides its function as immune marker, is also implicated in stimulating angiogenesis."}, "[8]": {"system": "TPA-induced tumors on mouse skin", "conditions": "topical 10 μmol curcumin twice weekly; cited from earlier work"}, "DMBA-induced oral tumors": {"system": "DMBA-induced oral tumors", "conditions": "topical 10 μmol curcumin to cheek pouch 3 times/week for 24 weeks; cited from earlier work"}, "[9]": {"system": "prostate cancer xenograft", "conditions": "p.o. gavage 5 mg/day, 5 days/week for 4 weeks; cited from earlier work"}}, "note": "Entries after “also recorded” stand apart in the source; their conditions may differ."}
{"molecule": "CO[C@H]1C[C@@H]2CC[C@@H](C)[C@@](O)(O2)C(=O)C(=O)N2CCCC[C@H]2C(=O)O[C@H]([C@H](C)C[C@@H]2CC[C@@H](OCCO)[C@H](OC)C2)CC(=O)[C@H](C)/C=C(\\C)[C@@H](O)[C@@H](OC)C(=O)[C@H](C)C[C@H](C)/C=C/C=C/C=C/1C", "note": "[RAD001, everolimus]", "values": [{"measurement": "sensitivity of a variety of cell lines", "setting": "HNSCC cell lines", "value": "wide range of sensitivity"}]}
{"molecule": "CO[C@H]1C[C@@H]2CC[C@@H](C)[C@@](O)(O2)C(=O)C(=O)N2CCCC[C@H]2C(=O)O[C@H]([C@H](C)C[C@@H]2CC[C@@H](OC(=O)C(C)(CO)CO)[C@H](OC)C2)CC(=O)[C@H](C)/C=C(\\C)[C@@H](O)[C@@H](OC)C(=O)[C@H](C)C[C@H](C)/C=C/C=C/C=C/1C", "note": "[CCI-779, temsirolimus]", "values": [{"measurement": "survival", "setting": "tumor formation", "value": "improve survival"}, {"measurement": "tumor formation", "setting": "tumor formation", "value": "inhibit tumor formation"}, {"measurement": "mTOR pathway markers in tumors and PBMCs", "setting": "mTOR pathway markers", "value": "modulation of these markers"}]}
{"molecule": "COc1cc(/C=C/C(=O)CC(=O)/C=C/c2ccc(O)c(OC)c2)ccc1O", "note": "[curcumin]", "values": [{"measurement": "growth inhibitory effect", "setting": "HNSCC cell lines; all 10 HNSCC cell lines tested to date", "value": "growth inhibitory effects"}, {"measurement": "effect on cell proliferation", "setting": "HNSCC cell lines; all HNSCC cell lines, 10 μM curcumin", "value": "inhibition of cell proliferation"}, {"measurement": "anti-proliferative effect", "setting": "HNSCC cell lines; panel of nine HNSCC cell lines, earlier work", "value": "robust anti-proliferative effects"}, {"measurement": "sensitivity of a variety of cell lines", "setting": "HNSCC cell lines", "value": "consistently sensitive"}, {"measurement": "growth inhibitory effect", "setting": "HNSCC cell lines; three HNSCC cell lines (PCI15a, SCC40, SCC066), 10 μM, 48 hours", "value": "significant growth inhibitory effects"}, {"measurement": "curcumin concentration giving consistent inhibition of cell proliferation", "setting": "HNSCC cell lines; variety of HNSCC cell lines, in vitro", "value": "less than 10 μM"}, {"measurement": "dose required to see effects in normal fibroblasts", "setting": "[1]", "value": "20 to 40", "unit": "µM"}, {"measurement": "pNFκB", "setting": "[2]; 24 and 48 hours", "value": "no change"}, {"measurement": "pAkt", "setting": "[2]; 48 hours", "value": "down-regulated"}, {"measurement": "pS6 downstream of mTOR", "setting": "[2]; 48 hours", "value": "down-regulated"}, {"measurement": "Akt/mTOR pathway", "setting": "[3]; 24 and 48 hours", "value": "no change"}, {"measurement": "pNFκB", "setting": "[3]; 48 hours", "value": "down-regulation"}, {"measurement": "Akt/mTOR pathway", "setting": "[4]", "value": "did not show any modulation"}, {"measurement": "pNFκB or Akt/mTOR", "setting": "[5]", "value": "no decrease"}, {"measurement": "pAkt in xenografts", "setting": "[6]", "value": "significant decrease"}, {"measurement": "pS6 in xenografts", "setting": "[6]", "value": "significant decrease"}, {"measurement": "tumor volume versus control (vehicle treated)", "setting": "tumor cells; 10 mg curcumin", "value": "no significant difference"}, {"measurement": "tumor volume versus control (vehicle treated)", "setting": "tumor cells; 15 mg curcumin, p=0.007, mixed ANOVA", "value": "statistically significant difference"}, {"measurement": "FGF-2 expression in HNSCC cells", "setting": "[7]; p<0.001", "value": "downregulation; also recorded: significant inhibition"}, {"measurement": "AKT/mTOR pathway in HNSCC cell lines", "setting": "[7]; panel of nine HNSCC cell lines", "value": "inhibition"}, {"measurement": "MMP-9 in HNSCC cell lines", "setting": "[7]; panel of nine HNSCC cell lines", "value": "downregulation"}, {"measurement": "inhibition of the number of tumors per mouse", "setting": "[8]", "value": 98, "unit": "%"}, {"measurement": "reduction of the number of DMBA-induced oral tumors", "setting": "DMBA-induced oral tumors", "value": "~40", "unit": "%"}, {"measurement": "inhibition of growth of prostate cancer xenograft", "setting": "[9]", "value": "~50", "unit": "%"}]}
